The record followed here is patent US9389219B2, “Methods for screening inhibitors of tumor associated protein aggregation” (Vrije Universiteit Brussel, priority 2011, dated 2016).

“Also recorded” adds a separate entry of the source. Where two headings read alike, the source gives them in different places. Where a SMILES comes first, the peptide text is derived from it. The star is where a group is joined. Cbz = O=C(OCc1ccccc1)*

Format in all cases: cell-based, human
The test system of assay [1] is WT p53 in U2OS cells. Put plainly: Native page analysis of p53 in treated U2OS cells.
For another assay, the system named is mutant p53. In words: BN-PAGE of p53 mutants over-expressed in SaOS-2 cells with MG-132. The following applies: I254R double mutants. The method, then:
SaOS-2 or Hela cells were rinsed with ice-cold 20 mM Tris-HCl, 150 mM NaCl, pH 7.4 (TBS) and lysed with 18 mM 3-[(3-cholamidopropyl) dimethylammonio]-1-propanesulfonic acid (CHAPS) in TBS with DNase and protease inhibitors for 30 minutes at 21° C. or on ice, respectively. Whole-cell lysate was fractionated by both SDS-PAGE (NuPAGE system, Invitrogen) and Blue-Native PAGE (NativePAGE system, Invitrogen) following the product manuals. For SDS-PAGE, sample was denatured at 95° C. for 10 minutes in the presence of 2% sodium dodecyl sulfate (SDS) and then fractionated by 10% Bis-Tris gels in MES-SDS running buffer (0.1% SDS, 50 mM MES, and 50 mM Tris-Base). For Blue-Native PAGE, cell lysate was added with 20% glycerol and 5 mM Coomassie G-250 before loading onto 3-12% Novex Bis-Tris gradient gels. […] After three times of rinsing with TBS containing 0.1% TWEEN® 20 (TBST), the membrane was stained with horseradish peroxidase (HRP)-conjugated goat anti-mouse IgG (Promega) and visualized with electrochemical luminescence (ECL) system. […]
(§1) In the degradation stability test, protein synthesis was blocked by 60 μg/mL cycloheximide 24 hours after transfection, and cells were lysed 0, 3, 6, 12, 24 and 48 hours after the addition of cycloheximide. […] Cells were analyzed by immunofluorescence after 24 hours.

Assay [2] concerns WT p53 in U2OS cells. Put plainly: Immunofluorescent staining for p53 inclusions, InCell Analyzer 2000. The following applies: >1000 cells/condition. The text has this:
It is becoming increasingly evident that resistance is also seen in cancers harboring wild-type p53, which might be explained by a change of conformation of wt p53 into a “mutant configuration.”^76 Cell lines harboring wt p53 were used and enhanced the expression using previously described chemotherapeutic agents. […] When performing immunofluorescent staining for p53 in U2OS cells, increased accumulation of non-soluble, inclusions of p53 in the cytoplasm was subsequently observed.

Assay [3] deals with WT p53 in U2OS cells. In words: Western blot of p53 in U2OS cells treated with chemotherapeutic agents. For orientation: In western blotting, separated proteins are transferred to a membrane and probed.
For assay [4], the system named is mutant p53 inclusions in SaOS-2 cells. Put plainly: Nocodazole treatment of transfected SaOS-2 cells, immunofluorescence of aggresomal inclusions. The method, then:
To further investigate the aggresomal nature of the observed inclusions, several strategies were adopted. (i) Since the formation of cytoplasmic inclusions in aggresomes is an active process that depends on cytoskeletal integrity,^15 transfected cells were treated with nocodazole, a small chemical that disrupts microtubule assembly. […] (ii) The oligomerization state of p53 in SaOS-2 cells by Blue-Native PAGE (BN-PAGE) and Western blot analysis was also assessed, after cell lysis with a mild detergent (CHAPS). […] In denaturing but non-reducing PAGE, the oligomers and aggregates were dissociated into monomers, and all mutants were expressed at similar levels (FIG. 2, panel c).
Since co-aggregation of proteins depends strictly on sequence similarity rather than hydrophobicity,^27 mutant p53 might also be able to induce co-aggregation and inactivation of p63 and p73. To investigate this hypothesis, mutant p53 and the transactivation domain (TA) of p63 or p73 (TAp63α/TAp73α) were co-expressed in SaOS-2 cells. […]
as §1

For `CC(C)C[C@H](NC(=O)[C@H](Cc1ccccc1)NC(=O)c1cnccn1)B(O)O` [Bortezomib], the “p53 high molecular-weight species (native page)” value in the assay on WT p53 in U2OS cells [1] is “smear was comparable”.
Turning to `CC(C)C[C@@H](C=O)NC(=O)[C@H](CC(C)C)NC(=O)[C@H](CC(C)C)NC(=O)OCc1ccccc1` [MG132] (Cbz-Leu-Leu-Leu-aldehyde), the “p53 high molecular-weight species (native page)” value in the assay with WT p53 in U2OS cells [1] is on record as “smear was comparable”. Also, in the assay on mutant p53, the “proteasomal degradation of mutant p53” value is given as “inhibited proteasomal degradation of mutant p53”.
`N.N.[Cl][Pt][Cl]` [cisplatin]: the “increase in cytoplasmic aggregates of p53” value in the assay with WT p53 in U2OS cells [2] is reported as “greater than three-fold increase”. Further, the “p53 expression level (Western blot)” value was “started to accumulate WT p53” in the assay with WT p53 in U2OS cells [3] and “increased expression levels of p53” in the assay on WT p53 in U2OS cells [3] (listed as Cisplatin). Besides, the “p53 high molecular-weight species (native page)” value with WT p53 in U2OS cells [1] is listed as “part of p53 ran as a high molecular weight smear; also recorded: high molecular-weight species of p53”.
In the case of `COc1cccc2c1C(=O)c1c(O)c3c(c(O)c1C2=O)C[C@@](O)(C(=O)CO)C[C@@H]3O[C@H]1C[C@H](N)[C@H](O)[C@H](C)O1` [doxorubicin], the “p53 expression level (Western blot)” value in the assay with WT p53 in U2OS cells [3] is “increased expression levels of p53”. Also, the “p53 high molecular-weight species (native page)” value with WT p53 in U2OS cells [1] is given as “high molecular-weight species of p53”.
`COC(=O)Nc1nc2ccc(C(=O)c3cccs3)cc2[nH]1` [nocodazole]: the “vimentin network and aggregates of mutant p53 and p63/p73” value in assay [4] (SaOS-2 cells co-expressing aggregating p53 mutants and TAp63α/TAp73α) was “disrupted the vimentin network and resulted in diffused punctuate aggregates in the cytoplasm”. Further, in assay [4] (SaOS-2 cells over-expressing mutant p53), the “cellular distribution of mutant p53” value is reported as “shifted from a punctate to a diffuse cytoplasmic staining”.
